{"source": "patent US20210308101A1", "about": "“METHODS OF TREATING FIBROMYALGIA” (Aptinyx Inc., priority 2019, published 2021)", "key": {"posterior insula Glx": {"tested_on": "posterior insula Glx", "experiment": "1H-MRS Glx levels, posterior insula (pre and post evoked cuff pain)", "type": "in vivo, human", "details": "for pain-evoked increase in posterior insula Glx at the visit: p>0.60; for posterior insula pain-related Glx/tCr level increases: 11 patients; for posterior insula evoked pain Glx levels compared to the placebo visit: p<0.10, FIG. 15", "description": "As used herein, “^1H-MRS” is Magnetic Resonance Spectroscopy (1H-MRS) or Proton Magnetic Resonance Spectroscopy. Proton magnetic resonance spectroscopy is a noninvasive imaging technique that allows in vivo determination of biochemical parameters within brain tissue. Proton magnetic resonance spectroscopy data were used to collect brain neurotransmitter levels of Glu and combined glutamate+glutamine metabolites (Glx). This method provides metrics amenable to longitudinal studies such as those proposed here. High-resolution anatomical scans can isolate identical brain structures within individuals over time, thus minimizing error that otherwise would occur because of slight differences in voxel location from 1 evaluation to the next. Previous ^1H-MRS studies have utilized this approach to examine changes in the levels of CNS metabolites in test-retest studies of drug effects. This study expanded the investigation to a variety of regions throughout the brain including: • Right anterior insula • Right posterior insula (This region was acquired twice: once prior to and once following evoked cuff pain. All other voxels were acquired once.) • Perigenual/rostral anterior cingulate cortex (midline) • Dorsal/anterior cingulate cortex (midline) • Precuneus (midline) • Medial prefrontal cortex • Thalamus (optional if time permitted)\nProton magnetic resonance spectroscopy data were collected using the same scanners used for fMRI. Voxels of interest were placed in each of the aforementioned brain regions to obtain levels of Glu and Glx.\nRaw data from each single-voxel spectroscopy sequence underwent manual post-processing using ^1H-MRS software (LCModel; Stephen Provencher, Oakville, Ontario, Canada). LCModel uses a linear combination of individual spectra obtained from pure molecular species to fit the experimental spectra. Glx values were calculated as an absolute concentration using the water signal for normalization or as a ratio to creatine. Correction for cerebral spinal fluid (CSF) volume, which can dilute ^1H-MRS-derived Glx values, was also performed. For this we used Voxel Based Morphometry, a toolbox that operates within SPM. Metabolite concentrations were excluded if the Cramér-Rao bounds were greater than 20%.\nThe analysis visit comparisons stated were analyzed using paired t-tests and/or nonparametric Wilcoxon signed-rank tests of Glx levels at each voxel independently in SPSS. The primary analyses were comparisons between posterior insula and anterior cingulate cortex Glx levels following placebo and NYX-2925 (either 20 or 200 mg) administration."}, "[1]": {"tested_on": "resting state network connectivity", "experiment": "rs-fcMRI group independent component analysis (DMN, SLN, DAN)", "type": "in vivo, human", "method": "In order to quantify intrinsic brain connectivity, rs-fcMRI data were analyzed with both dual-regression ICA and seed-voxel approaches. These approaches are complementary, as they quantify intrinsic brain connectivity on a network level (dual regression probabilistic ICA) and a more specific region-focused level (seed-voxel).\nResting state functional connectivity MRI data were preprocessed and analyzed using statistical parametric mapping software package Version 12, the CONN functional connectivity toolbox, and the GIFT toolbar, all running on MATLAB Version 9.2 or later. Upon collection of rs-fcMRI data, physiological artifacts were first removed using a custom MATLAB algorithm and slice-time corrected using Functional Magnetic Resonance Imaging of the Brain Software Library software. Preprocessing steps included motion correction, realignment, registration, normalization to standard Montreal Neurological Institute template, and smoothing (full width at half maximum Gaussian kernel of 6 or 8 mm).\nGroup ICA was performed using the GIFT toolbar and component estimates were validated using Icasso software for 10 iterations. The number of independent components was limited to 25 to minimize splitting into subcomponents. Subject-specific spatial maps and time courses were back reconstructed using spatiotemporal regression and dual regression in GIFT. As for seed-based analyses, individual maps were passed onto group second level analyses in statistical parametric mapping, where differences in resting state network connectivity between placebo and drug images were performed.\nSeveral analyses were conducted with the fMRI resting state and task data. Results were assessed by: 1) a primary analysis, where a finding was deemed significant with a corrected cluster level p<0.05, derived from an uncorrected voxel-wise p<0.001, and 2) an exploratory analysis, where a finding was deemed significant with an uncorrected voxel-wise p<0.005 and having a cluster greater than or equal to 80 contiguous voxels. Results that met significance in the primary analyses had connectivity values extracted and imported into SPSS v25 where paired t-tests were performed to assess for potential outliers contributing to the finding. Remaining data were then correlated with clinical measures using parametric bivariate Pearson correlations. Results were deemed significant at p<0.05.\nGroup ICA was performed (n=18) for the resting state scan, and the network components for the Default Mode Network, the Salience Network, and the Dorsal Attention Network were computed. […] With the exploratory analyses, resting state connectivity was decreased from the placebo visit to the NYX-2925 200 mg visit (placebo >NYX-2925 200 mg) between the Default Mode Network and the left mid cingulate cortex. […] In exploratory analyses, resting state functional connectivity was decreased from the placebo visit to the NYX-2925 200 mg visit (placebo >NYX-2925 200 mg) between the Salience Network and the right putamen/thalamus. Here, augmented connectivity between Salience Network, a network comprised of pronociceptive regions, and putamen and thalamus, regions also involved in nociception, was decreased following treatment with NYX-2925."}, "[2]": {"details": "exploratory, placebo visit to NYX-2925 200 mg visit"}}}
{"molecule": "CC(C)C(=O)N1CCC[C@]12CN([C@H](C(N)=O)[C@@H](C)O)C2=O", "note": "[NYX-2925, (2S, 3R)-3-hydroxy-2-((R)-5-isobutyryl-1-oxo-2,5-diazaspiro[3.4]octan-2-yl)butanamide]", "values": [{"measurement": "resting posterior insula Glx levels following evoked pain", "setting": "posterior insula Glx; FIG. 5: 20 mg vs placebo, 19 patients, p=0.032", "result": "significantly reduce resting posterior insula Glx levels"}, {"measurement": "pain-evoked increase in posterior insula Glx at the visit", "setting": "posterior insula Glx; NYX-2925 20 mg visit", "result": "not significant"}, {"measurement": "posterior insula pain-related Glx/tCr level increases", "setting": "posterior insula Glx; NYX-2925 20 mg vs placebo, FIG. 3A, p<0.05", "result": "reduction in pain related Glx/tCr level increases"}, {"measurement": "posterior insula evoked pain Glx levels compared to the placebo visit", "setting": "posterior insula Glx; NYX-2925 20 mg", "result": "trend for NYX-2925 20 mg and 200 mg to reduce evoked pain Glx levels"}, {"measurement": "posterior insula Glx levels post-pain (ratios to creatine only)", "setting": "posterior insula Glx; NYX-2925 200 mg compared to placebo, p<0.05", "result": "significant decrease in Glx levels"}, {"measurement": "pain-evoked increase in posterior insula Glx at the visit", "setting": "posterior insula Glx; NYX-2925 200 mg visit", "result": "not significant"}, {"measurement": "posterior insula pain-related Glx/tCr level increases", "setting": "posterior insula Glx; NYX-2925 200 mg vs placebo, FIG. 3B, p<0.05", "result": "reduction in pain related Glx/tCr level increases"}, {"measurement": "posterior insula evoked pain Glx levels compared to the placebo visit", "setting": "posterior insula Glx; NYX-2925 200 mg", "result": "trend for NYX-2925 20 mg and 200 mg to reduce evoked pain Glx levels"}, {"measurement": "connectivity Default Mode Network - left mid cingulate cortex", "setting": "[1]; [2]", "result": "decreased"}, {"measurement": "connectivity Salience Network - right putamen/thalamus", "setting": "[1]; [2]", "result": "decreased"}, {"measurement": "Salience Network connectivity", "setting": "[1]; primary analysis", "result": "No results met significance"}, {"measurement": "Default Mode Network connectivity", "setting": "[1]; primary analysis, n=18", "result": "No results met significance"}, {"measurement": "Dorsal Attention Network connectivity", "setting": "[1]; primary and exploratory analyses", "result": "no significant results"}]}
